According to ChEMBL document CHEMBL1201862, “PubChem BioAssay data set” (2004):
Calls of active or inactive are those of the source.

Experiments:
Type in all cases: functional
[1] = biological target: 72 kDa type IV collagenase (Homo sapiens, UniProt P08253); test: Dose Response validation of uHTS RPN11 inhibitor hits using a MMP-2 Fluorescence assay.
[2] = biological target: T1, Dual specificity protein phosphatase 6 (Rattus norvegicus, UniProt Q64346);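 also: confirmatory in vitro dose-response testing of MKP-3 inhibition; recombinant His-tagged MKP-3 made in E. coli BL21 with OMFP substrate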
T1 sequence (Q64346 whole entry): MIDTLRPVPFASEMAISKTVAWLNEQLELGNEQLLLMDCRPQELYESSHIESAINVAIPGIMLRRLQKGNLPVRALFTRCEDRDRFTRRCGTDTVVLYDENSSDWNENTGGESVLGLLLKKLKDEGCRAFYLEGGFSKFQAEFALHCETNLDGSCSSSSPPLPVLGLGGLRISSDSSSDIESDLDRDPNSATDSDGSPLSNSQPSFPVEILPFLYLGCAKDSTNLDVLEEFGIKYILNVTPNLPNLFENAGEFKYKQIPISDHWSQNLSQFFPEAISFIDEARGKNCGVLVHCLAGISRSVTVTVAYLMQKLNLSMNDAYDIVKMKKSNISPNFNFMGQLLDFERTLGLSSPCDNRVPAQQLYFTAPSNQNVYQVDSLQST

[3] = biological target: T2, Tyrosine-protein phosphatase non-receptor type 7 (Homo sapiens, UniProt P35236); test: HTS HePTP Fluorescent Assay using OMFP substrate for In Vitro dose response studies. [Related pubchem assays (depositor defined):AID1059, AID1077, AID1784, AID2068, AID2085, AID435032, AID521]
T2 sequence (P35236 whole entry): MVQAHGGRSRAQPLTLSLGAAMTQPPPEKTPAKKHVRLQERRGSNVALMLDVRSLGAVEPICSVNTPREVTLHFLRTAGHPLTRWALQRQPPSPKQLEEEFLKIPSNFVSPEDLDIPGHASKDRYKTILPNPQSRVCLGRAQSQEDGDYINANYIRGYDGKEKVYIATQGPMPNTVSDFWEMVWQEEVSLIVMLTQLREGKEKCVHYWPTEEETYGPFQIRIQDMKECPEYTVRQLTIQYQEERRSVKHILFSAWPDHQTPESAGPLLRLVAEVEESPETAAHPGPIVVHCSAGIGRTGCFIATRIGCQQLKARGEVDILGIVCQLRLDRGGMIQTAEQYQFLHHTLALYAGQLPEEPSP

[4] = biological target: T3, Tyrosine-protein phosphatase non-receptor type 22 (Homo sapiens, UniProt Q9Y2R2);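 also: confirmatory dose-response retest of primary uHTS hits for inhibition of LYP phosphatase, measured by a fluorescence intensity read-out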
T3 sequence (Q9Y2R2 whole entry): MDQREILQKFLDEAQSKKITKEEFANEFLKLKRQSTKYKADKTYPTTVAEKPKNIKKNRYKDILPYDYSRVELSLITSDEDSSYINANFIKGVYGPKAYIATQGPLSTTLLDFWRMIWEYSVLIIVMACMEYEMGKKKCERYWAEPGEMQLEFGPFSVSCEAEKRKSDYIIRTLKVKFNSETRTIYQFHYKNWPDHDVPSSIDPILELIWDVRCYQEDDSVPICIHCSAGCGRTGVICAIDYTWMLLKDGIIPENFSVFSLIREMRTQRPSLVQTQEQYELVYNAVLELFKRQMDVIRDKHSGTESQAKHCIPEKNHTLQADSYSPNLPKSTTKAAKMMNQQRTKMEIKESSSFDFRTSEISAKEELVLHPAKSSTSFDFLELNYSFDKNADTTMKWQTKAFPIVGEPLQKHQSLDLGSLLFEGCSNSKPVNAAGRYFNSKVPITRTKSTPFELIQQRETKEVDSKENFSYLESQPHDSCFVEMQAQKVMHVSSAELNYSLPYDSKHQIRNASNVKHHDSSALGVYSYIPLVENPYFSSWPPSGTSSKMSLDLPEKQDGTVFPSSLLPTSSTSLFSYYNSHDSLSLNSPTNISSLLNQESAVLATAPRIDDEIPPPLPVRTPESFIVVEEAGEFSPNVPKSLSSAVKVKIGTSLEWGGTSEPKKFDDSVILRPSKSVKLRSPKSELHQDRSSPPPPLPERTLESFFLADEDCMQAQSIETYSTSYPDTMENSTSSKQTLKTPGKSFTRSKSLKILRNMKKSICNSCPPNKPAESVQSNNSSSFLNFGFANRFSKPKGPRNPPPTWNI

[5] = biological target: T4, Dual specificity protein phosphatase 3 (Homo sapiens, UniProt P51452); test: VHR phosphatase inhibition, dose response, selectivity assay for STEP inhibitor project, biochemical (AID 602374); details: read-out: IC50_Mean
T4 sequence (P51452 whole entry): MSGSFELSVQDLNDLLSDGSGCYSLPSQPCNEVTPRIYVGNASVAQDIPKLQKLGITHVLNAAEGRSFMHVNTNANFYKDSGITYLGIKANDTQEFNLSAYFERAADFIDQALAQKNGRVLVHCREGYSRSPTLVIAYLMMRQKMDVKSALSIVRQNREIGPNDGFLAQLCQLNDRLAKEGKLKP

[6] = biological target: T4, Dual specificity protein phosphatase 3; test: SAR VHR1 Fluorescent Assay for In Vitro dose response studies Set 2. [Related pubchem assays (depositor defined):AID1654, AID1661, AID1878]
[7] = biological target: T5, Replicative DNA helicase DnaB (Mycobacterium tuberculosis, UniProt P9WMR3); test: DnaB intein splicing inhibitors, dose response, biochemical, cell-free fluorescence (AID 449749)
T5 sequence (P9WMR3 whole entry): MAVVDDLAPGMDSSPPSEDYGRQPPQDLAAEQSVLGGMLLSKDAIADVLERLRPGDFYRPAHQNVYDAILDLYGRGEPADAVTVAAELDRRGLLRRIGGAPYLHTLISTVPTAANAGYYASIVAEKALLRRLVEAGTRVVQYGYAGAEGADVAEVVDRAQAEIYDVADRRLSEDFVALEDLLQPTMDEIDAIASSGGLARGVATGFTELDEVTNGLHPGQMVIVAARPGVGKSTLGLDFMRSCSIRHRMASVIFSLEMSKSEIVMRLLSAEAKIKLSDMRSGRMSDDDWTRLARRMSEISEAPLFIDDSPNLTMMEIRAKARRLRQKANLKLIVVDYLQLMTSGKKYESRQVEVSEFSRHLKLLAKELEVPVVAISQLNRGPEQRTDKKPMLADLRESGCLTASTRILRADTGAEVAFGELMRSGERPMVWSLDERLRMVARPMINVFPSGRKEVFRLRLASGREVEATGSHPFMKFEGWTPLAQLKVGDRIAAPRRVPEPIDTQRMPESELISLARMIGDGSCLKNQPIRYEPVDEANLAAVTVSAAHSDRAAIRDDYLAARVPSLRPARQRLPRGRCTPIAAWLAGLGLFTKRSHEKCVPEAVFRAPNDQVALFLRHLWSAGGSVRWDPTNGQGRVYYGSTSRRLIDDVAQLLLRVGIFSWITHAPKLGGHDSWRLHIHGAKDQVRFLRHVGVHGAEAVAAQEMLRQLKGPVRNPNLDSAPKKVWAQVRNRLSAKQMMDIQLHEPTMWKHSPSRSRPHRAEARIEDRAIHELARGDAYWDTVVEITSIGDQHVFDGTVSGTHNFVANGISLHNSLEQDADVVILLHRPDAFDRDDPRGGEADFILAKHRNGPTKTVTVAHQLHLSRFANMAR

[8] = biological target: SUMO E1/E2 (Homo sapiens, UniProt P63279+Q9UBE0+Q9UBT2); test: SAR analysis of SUMOylation using HTRF in an in-Vitro dose response assay. [Related pubchem assays (depositor defined):AID2006, AID2011, AID2018, AID2069, AID2658]
Chain of SUMO E1/E2 (Q9UBE0 whole entry): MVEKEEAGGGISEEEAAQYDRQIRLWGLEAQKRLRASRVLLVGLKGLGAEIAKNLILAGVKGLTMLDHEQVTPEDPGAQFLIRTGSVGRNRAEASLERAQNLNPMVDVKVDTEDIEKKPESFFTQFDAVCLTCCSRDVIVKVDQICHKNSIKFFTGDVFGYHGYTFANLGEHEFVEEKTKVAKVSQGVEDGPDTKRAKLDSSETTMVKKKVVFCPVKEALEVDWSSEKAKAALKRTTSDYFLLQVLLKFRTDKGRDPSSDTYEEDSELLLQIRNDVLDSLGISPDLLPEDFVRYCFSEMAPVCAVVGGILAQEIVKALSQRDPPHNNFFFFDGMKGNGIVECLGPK
Chain of SUMO E1/E2 (Q9UBT2 whole entry): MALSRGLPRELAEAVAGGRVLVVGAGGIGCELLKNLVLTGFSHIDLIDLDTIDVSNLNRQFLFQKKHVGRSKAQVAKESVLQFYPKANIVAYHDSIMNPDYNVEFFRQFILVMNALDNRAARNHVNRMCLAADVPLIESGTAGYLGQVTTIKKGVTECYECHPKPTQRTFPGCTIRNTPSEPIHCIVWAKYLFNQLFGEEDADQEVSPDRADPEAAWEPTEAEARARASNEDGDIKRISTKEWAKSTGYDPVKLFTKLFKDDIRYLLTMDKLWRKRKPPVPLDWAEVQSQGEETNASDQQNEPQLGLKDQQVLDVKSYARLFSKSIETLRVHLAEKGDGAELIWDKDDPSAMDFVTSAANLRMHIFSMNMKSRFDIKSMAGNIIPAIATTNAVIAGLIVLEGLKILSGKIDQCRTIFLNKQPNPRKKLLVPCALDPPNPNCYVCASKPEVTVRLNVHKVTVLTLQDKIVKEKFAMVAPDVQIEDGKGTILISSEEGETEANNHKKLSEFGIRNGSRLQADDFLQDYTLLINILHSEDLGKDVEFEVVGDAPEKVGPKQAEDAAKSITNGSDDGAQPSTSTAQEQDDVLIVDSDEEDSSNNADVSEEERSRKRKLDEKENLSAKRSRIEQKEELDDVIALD
Chain of SUMO E1/E2 (P63279 whole entry): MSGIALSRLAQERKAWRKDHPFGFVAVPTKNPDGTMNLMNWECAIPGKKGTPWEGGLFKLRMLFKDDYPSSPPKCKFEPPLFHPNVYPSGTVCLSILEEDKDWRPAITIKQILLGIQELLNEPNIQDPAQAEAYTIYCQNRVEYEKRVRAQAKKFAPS

Chain of 72 kDa type IV collagenase (P08253 whole entry): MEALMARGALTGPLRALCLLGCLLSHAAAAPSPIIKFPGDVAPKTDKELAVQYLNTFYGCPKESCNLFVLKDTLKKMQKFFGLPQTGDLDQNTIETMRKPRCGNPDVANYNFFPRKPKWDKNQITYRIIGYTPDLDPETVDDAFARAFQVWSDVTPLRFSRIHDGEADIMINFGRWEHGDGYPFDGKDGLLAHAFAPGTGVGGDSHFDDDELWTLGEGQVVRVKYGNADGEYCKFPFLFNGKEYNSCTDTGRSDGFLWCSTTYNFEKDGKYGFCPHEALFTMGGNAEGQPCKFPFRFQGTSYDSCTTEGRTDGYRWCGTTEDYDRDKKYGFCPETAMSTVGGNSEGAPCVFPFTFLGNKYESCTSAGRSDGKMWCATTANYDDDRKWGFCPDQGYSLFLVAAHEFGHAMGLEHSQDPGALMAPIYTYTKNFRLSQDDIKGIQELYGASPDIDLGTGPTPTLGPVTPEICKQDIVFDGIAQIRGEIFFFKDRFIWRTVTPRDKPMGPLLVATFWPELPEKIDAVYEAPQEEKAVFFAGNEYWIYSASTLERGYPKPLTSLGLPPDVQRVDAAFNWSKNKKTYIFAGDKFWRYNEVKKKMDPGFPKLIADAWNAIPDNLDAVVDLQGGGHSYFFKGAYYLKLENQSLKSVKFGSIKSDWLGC

Compound: CCOC(=O)c1sc2nc3c(SCC(=O)O)cc(C(=O)c4ccccc4O)cn3c(=O)c2c1C
- IC50 [1]: 0.821 µM (active)
- IC50 [2]: 57.3 µM (active)
- IC50 [3]: > 99 µM (inactive)
- IC50 [4]: < 1.24 µM (active)
- IC50 [5]: 0.549 µM (active)
- IC50 [6]: 0.218 µM (active)

Compound: CCOC(=O)c1ccc(Nc2cc3ccccc3c(O)n2)cc1
- AC50 [7]: 11.1 µM (active)

Compound: C=CCn1c(NC(=O)c2ccccc2Cl)c(C#N)c2nc3ccccc3nc21
- IC50 [8]: 15.7 µM (active)
